Results reported in patent US20170258747A1, “GLUTAMINE ENRICHED NUTRITIONAL COMPOSITION FOR PRETERM INFANTS” (N.V. Nutricia, priority 2012, published 2017).

Key:
VLBW infants [1] = details: at age of 2 years; cited from earlier work
VLBW infants [2] = details: in the first year of life and at the age of 6; cited from earlier work
[3] = system: very preterm and/or VLBW children; assay: Intellectual development, short form of WISC-III; type: in vivo, human; details: mean, sd 17.7, n=30; scores normalised with a mean of 100 (SD 15); p=0.12 versus control
Experimental: Intellectual development was measured in the same group of infants as example 1 by a short form of the Wechsler Intelligence Scale for Children-III (WISC-III), including the subtests Vocabulary and Block Design. […]. Both subtests correlate strongly (r 0.90) with full-scale intelligence quotient (FSIQ). Scores on this test were normalised with a mean of 100 (SD 15). There was a trend (p=0.12 when adjusted for gestational age and socioeconomic status) in improved IQ (WISC-III FSIQ being 102, sd 17.7, n=30) in the glutamine group compared to the control group (WISC-III FSIQ 93.6 sd 17.2 n=34).

VLBL infants = details: supplementation with glutamine in VLBL infants; cited from earlier work
[4] = system: very preterm and/or VLBW children; assay: Brain cortical volumes by MRI at school age after enteral glutamine supplementation, days 3-30 of life; type: in vivo, human
Experimental: (§1) A randomized, placebo controlled clinical trial was performed. For a detailed protocol of the study, see van den Berg et al, 2004, Glutamine-enriched enteral nutrition in very low birth weight infants. Design of a double-blind randomised controlled trial [ISRCTN73254583], BMC Pediatrics 4:17.
(§2) In short: Infants with a gestational age <32 weeks and/or birth weight <1500 g were enrolled. In total 52 very preterm and/or VLBW children, which had taken part in a randomized controlled trial on enteral glutamine supplementation between day 3 and 30 of life, participated in this follow up study at the mean age of 8.6 years (SD=0.3 years). 30 infants were in the control group and 22 in the glutamine supplementation group. Also comparisons were made with a control group (n=52) of term born infants.
(§3) The glutamine nutritional supplement was in powder form and contained 82 wt. % L-glutamine in total and 18 wt. % glucose (nitrogen 15.5 wt/wt %; 371 kcal/100 g), whereas the isonitrogenous control powder contained 100 wt. % L-alanine (nitrogen 15.7 wt/wt %, 435 kcal/100 g). The two powders were indistinguishable by appearance, colour and smell. Between days 3 and 30 of life, supplementation was administered in increasing doses to a maximum of 0.3 g/kg glutamine per day in the glutamine group. Initially, the supplementation dose was based on birth weight. After 2 weeks the dose was adjusted to actual body weight. Two members of the nursing staff daily added supplementation to breast milk or to preterm formula (Nenatal®, Nutricia Nederland B.V., Zoetermeer, The Netherlands), according to the parents' choice. Per 100 ml, Nenatal® provides 78 kcal, 2.1 g protein (casein-whey protein weight ratio 40:60), 4.4 g fat and 7.5 g carbohydrate. […] Protocol guidelines for the introduction of parenteral and enteral nutrition are disclosed in van den Berg et al., 2004.
(§4) All statistical analyses are performed on an intention to treat basis. In addition, alternative per protocol analyses are performed, excluding all patients who are not treated according to protocol, defined as more than 3 consecutive days or more than a total of 5 days on minimal enteral feeding or without supplementation. A p value<0.05 is considered significant (two-tailed). SPSS 9.0 (SPSS Inc., Chicago, Ill., USA) and STAT 7.0 (Stat-Corp LP, College Station, Tex., USA) are used for data analysis. A p value of 0.1 or below is considered to represent a realistic effect, a trend. Due to the small size of the groups also the effect size is taken into account. An effect size above 0.4 is considered to represent a trend.
Brain cortical volumes were determined by MRI and calculated using FSL software “FAST” and corrected for age at MM scan, gender and body weight for gestational age. […] This was the case for intracranial volume, grey matter, white matter and cerebellum volume.

[5] = system: glutamine fed preterm group; assay: fMRI neuronal activation later in life; type: in vivo, human
Excerpt: The improved brain development established at school age is indicative for improvement in neurocognitive functioning, behavioral and/or motional development, improving neuronal activation during interference task or during visuo-spatial working memory task, improvement of visuomotor skills (caterpillar-task).

[6] = system: very preterm and/or VLBW children; assay: Brain subcortical volumes by MRI at school age after enteral glutamine supplementation, days 3-30 of life; type: in vivo, human
Experimental: as §1, §2, §3, §4
Brain subcortical volumes were determined by Mill and calculated using FSL software “FAST” and corrected for age at Mill scan, gender and body weight for gestational age. […] This was the case for the brain stem, thalamus, putamen, caudate nucleus, hippocampus, globus pallidum, amygdale, nucleus accumbens and the corpus callosum volume.

[7] = glutamine supplemented versus control preterm group
[8] = mean, MRI at mean age 8.6 years, max 0.3 g/kg glutamine per day, days 3-30 of life
[9] = mean, MRI at mean age 8.6 years

NC(=O)CC[C@H](N)C(=O)O [Glutamine, L-glutamine]
Neurodevelopment outcome (VLBW infants [1]): no effect
Risk for atopic dermatitis (VLBW infants [2]): decreases
WISC-III FSIQ [3]: 102
Infectious morbidity (VLBL infants): lowers
Effect size, cerebellum ([4]; control versus glutamine group): 0.41
Effect size, grey matter ([4]; control versus glutamine group): 0.29
Effect size, intracranial volume ([4]; control versus glutamine group): 0.48
Effect size, white matter ([4]; control versus glutamine group): 0.54
Cerebellum volume compared with preterm control group [4, 7]: tendency for an increase
Cortical brain volumes compared with preterm control group [4, 7]: higher than in the control group
Intracranial volume compared with preterm control group [4, 7]: tendency for an increase
White matter volume compared with preterm control group [4, 7]: significantly higher
Cerebellum volume [4, 8]: 110.89 cm^3
Grey matter volume [4, 8]: 727.4 cm^3
Intracranial volume [4, 8]: 1649.8 cm^3
White matter volume [4, 8]: 496.5 cm^3
Neuronal activation (fMRI) [5]: more similar to term infants
Effect size, amygdala ([6]; control versus glutamine group): 0.46
Effect size, brain stem ([6]; control versus glutamine group): 0.54
Effect size, caudate nucleus ([6]; control versus glutamine group): 0.10
Effect size, corpus callosum ([6]; control versus glutamine group): 0.18
Effect size, globus pallidum ([6]; control versus glutamine group): 0.48
Effect size, hippocampus ([6]; control versus glutamine group): 0.47
Effect size, nucleus accumbens ([6]; control versus glutamine group): 0.04
Effect size, putamen ([6]; control versus glutamine group): 0.55
Effect size, subcortical structures ([6]; control versus glutamine group): 0.50
Effect size, thalamus ([6]; control versus glutamine group): 0.39
Brain stem volume compared with preterm control group [6, 7]: significantly higher
Hippocampus volume compared with preterm control group [6, 7]: significantly higher
Subcortical volume compared with preterm control group [6, 7]: higher
Amygdala volume [6, 9]: 2.3 cm^3
Brain stem volume [6, 9]: 18.9 cm^3
Caudate Nucleus volume [6, 9]: 7.4 cm^3
Corpus callosum [6, 9]: 535.7 mm^2
Globus Pallidum volume [6, 9]: 3.5 cm^3
Hippocampus volume [6, 9]: 7.2 cm^3
Nucleus accumbens volume [6, 9]: 1.0 cm^3
Putamen volume [6, 9]: 10.9 cm^3
Subcortical structures volume [6, 9]: 66.5 cm^3
Thalamus volume [6, 9]: 15.3 cm^3
